We go through three compounds from US6114393A, “Use of inhibitors of the sodium-hydrogen exchanger for the production of a pharmaceutical for the treatment of disorders which are caused by protozoa” (Hoechst Marion Roussel Deutschland GmbH, priority 1997, dated 2000).

In assay [1] the test system is Plasmodium falciparum HB3 (chloroquine-sensitive) strain. Briefly: growth inhibition of Plasmodium falciparum, [3H]-hypoxanthine incorporation, chloroquine-sensitive (HB3) strain. In kind it is cell-based. To be noted: 48 h erythrocyte cycle, ring stage, 1% parasitemia. Here is the method:
(§1) Erythrocytic stages of the human malaria parasite Plasmodium falciparum were cultured in RPMI 1640 medium, with L-glutamine, 25 mM HEPES, 4 μg/ml of gentamycin, 10% human serum and 5% human erythrocytes, according to Trager and Jensen (1976). The cultures were kept in Petri dishes (10 ml per dish with 10 cm diameter) and incubated at 37° C. in an atmosphere of 92% nitrogen, 3% carbon dioxide and 5% oxygen. The medium of the cultures was changed daily. At a parasitemia of at most 10%, the cultures were diluted. In order to synchronize the cultures, the infected erythrocytes were washed in 5% strength sorbitol solution according to Lambros and Vanderberg (1979). Only the ring stages survive this treatment.
(§2) The half-maximal inhibitory concentration of various NHE inhibitors for the growth of Plasmodium flaciparum was measured in 96-well microtiter plates by incorporation of radioactive hypoxanthine according to Desjardins et al. (1979). In this case, the parasites were cultured for a complete erythrocyte cycle lasting 48 hours in the presence of the corresponding NHE inhibitors.
(§3) The NHE inhibitors were dissolved in DMSO and prediluted in physiological saline solution (150 mM NaCl). The dilution series of the NHE inhibitors in 10-fold concentrated 20 μl aliquots was initially introduced onto the microtiter plates, 180 μl of parasite suspension in culture medium were then added to each one. The parasites were in the ring stage with a parasitemia of 1%. The microtiter plates were then incubated for 24 hours. In order to change the culture medium, 150 μl each of supernatant from each well were removed and replaced by 135 μl of new medium, additionally supplemented with 2 μCi/ml of [3H]-hypoxanthine. […] After incubation for a further 24 hours, the cultures were harvested by filtration on glass fiber filters and the incorporated radioactivity was measured. […]
(§4) The IC50 values of the various NHE inhibitors were measured on a chloroquine-sensitive (HB3) and a chloroquine-resistant (Dd2) strain.

The subject of assay [2] is Plasmodium falciparum Dd2 (chloroquine-resistant) strain. Briefly: growth inhibition of Plasmodium falciparum, [3H]-hypoxanthine incorporation, chloroquine-resistant (Dd2) strain. In kind it is cell-based. To be noted: read-out: Dd2 IC50. How it is done:
as §1, §2, §3, §4

[3] abbreviates: Dd2, chloroquine-resistant, 48 h erythrocyte cycle, ring stage, 1% parasitemia.

SMILES strings stand for the structures. Where a name gives a salt, the structure may show the parent alone. Read-outs that look alike come from different tables or passages of the source.

Usually IC50 stands for the concentration that gives 50% inhibition.

With `CS(=O)(=O)c1cc(C(=O)N=C(N)N)ccc1Oc1ccc(CCN)cc1` [4-[4-(2-aminoethyl)phenoxy]-3-methylsulfonylbenzoylguanidine dihydrochloride], the IC50 was 2.9 ± 0.79 µM in assay [1] and 3.5 ± 0.04 µM in assay [2] (DD2, Erythrocyte, 48 h).
Consider `CN(C)c1cc(C(=O)N=C(N)N)cc(C(F)(F)F)c1` [3-trifluoromethyl-5-N,N-dimethylaminobenzoylguanidine dihydrochloride], for which the IC50 came to 9.97 µM in assay [1] and 1.3 ± 0.1 µM in assay [2] (setting [3]).
Turning to `NC(N)=NC(=O)c1ccc(Oc2cccnc2)c(C(F)(F)F)c1` [3-trifluoromethyl-4-(3-pyridyloxy)benzoylguanidine dihydrochloride], the IC50 in assay [1] came out at 12 ± 1.7 µM; in assay [2] (setting [3]) it was 6.5 ± 1.5 µM.
